# Results published in US20130209625A1, “METHODS AND COMPOSITIONS FOR STIMULATING A FELIDAE T1R RECEPTOR” (MONELL CHEMICAL SENSES CENTER, priority 2010, published 2013).
# System: Felidae T1R1/T1R3 receptor
# Assay: Calcium imaging (fura-2, F340/F380) of HEK293 cells expressing T1R1/T1R3 receptor and Gα15, responses to taste stimuli
# Assay type: cell-based, cat
# Excerpt: Provided herein are methods for determining if two or more test compounds have an augmenting effect on the T1R1/T1R3 receptor where each test compound alone elicits a small or moderate response comprising contacting the receptor with the test compounds, and measuring the response of the receptor to the test compounds, wherein the compounds have an augmenting effect on the receptor if the response of the receptor to the compounds in a mixture in which each compound is presented at a given concentration is greater than the response to either one of the compounds alone at its given respective concentration. Responses are measured in terms of the Fluorescence Ratio F340/F380 as detailed in the Examples. Responses are gauged by comparing each response with the response to 100 μM isoproterenol, the positive control which activates the cell through Gα15. A null response is less than 10% of the control response. A small or moderate response is equal to or greater than 10% of the control response. In some preferred embodiments, the T1R1/T1R3 receptor is a Felidae T1R1/T1R3 receptor
# b. Cell Transfection: HEK293 cell lines that stably express Gα15 were grown and maintained at 37° C. DMEM supplemented with 10% FBS and MEM nonessential amino acids (Invitrogen); the medium for Gα15 transfected cells contains 5 μg/ml blasticidin (Invitrogen). Cells were co-transfected with expression constructs by using Lipofectamine 2000 reagent (Invitrogen). T1R1/T1R3 transfected cells were selected using Zeocin (100 μg/ml) and hygromycin (400 μg/ml).
# c. Establishing stable cell lines: Transfected cells were maintained in antibiotic selective medium until colonies appear. Single colonies were identified two weeks after transfection and were examined for RNA expression by RT-PCR and for protein expression by immunohistochemistry. Positive colonies confirmed by RT-PCR and immunohistochemistry were stocked in liquid nitrogen as stable cell lines expressing T1R1/T1R3.
# a. In vitro assays: HEK293 cells' responses to taste stimuli were measured using calcium imaging techniques (Nelson et al. 2001, Li et al. 2002, Gomez et al. 2005). Transfected cells were loaded with fura-2 containing buffer for one hour. Coverslips with fura-2 loaded cells were then placed in a recording chamber and continuously superfused with Hank's salt solution (Nelson et al. 2001). Enhancement solutions were applied by switching the superfusion, which allowed a complete change of bath solutions within 5-20 seconds, based on preliminary experiments with fluorescent dye for each setup and recording chamber. Calcium imaging recordings were performed using Imagemaster-5 multi-wavelength quantitative fluorescence imaging system (Photon Technology International, Inc.). Cells were illuminated with UV light at two wavelengths (340 or 380 nm). Intracellular calcium activity was computed from the ratio of emitted light from the 340/380 nm wavelengths. Excitation light was shuttered between acquisitions, with exposure times being minimized (typically 50-100 msec). Images are normally acquired every 2-5 sec. Using these conditions, cells remain viable in the recording setup for more than 2 h without significant effects of dye bleaching or baseline shifts. The use of ratiometric imaging reduces the problems associated with fluorescence quenching or dye loss that can generate artifacts using single-wavelength dyes.
# b. Amino acid stimulation of the HEK transfected cell lines: In a typical experiment to determine if there is an interaction at the receptor between two compounds, the response (peak height of intracellular calcium concentration) to each compound as well as a mixture of the two compounds is measured. If each compound alone elicits a small or moderate response, it will be necessary to compare responses to single compounds with a mixture in which each compound is presented at its initial test concentration. In this manner we can determine if the enhancement is greater than simple additivity. […]
smiles,measurement,setting,value
C[C@H](N)C(=O)O [L-alanine],response of HEK293 cell (calcium imaging),"FIG. 5, 25 mM L-alanine alone",null responses
N[C@@H](Cc1c[nH]cn1)C(=O)O [L-histidine],augmentation of response by pyrophosphate,"FIG. 4, 5 cells",not augmented
same,response of HEK293 cells (calcium imaging),"FIG. 4, 5 cells, 25 mM L-histidine alone",null responses
same,response of HEK293 cell (calcium imaging),"FIG. 5, 25 mM L-histidine alone",null responses
NCCCC[C@H](N)C(=O)O [L-lysine],response of HEK293 cells (calcium imaging),"FIG. 4, 5 cells, 25 mM L-lysine alone",null responses
same,response of HEK293 cell (calcium imaging),"FIG. 6, 25 mM L-lysine alone",null response (A null response is less than 10% of the control response)
O=C(O)[C@@H]1CCCN1 [L-proline],response of HEK293 cell (calcium imaging),"FIG. 1, 25 mM L-proline alone, vs 100 μM isoproterenol positive control",null responses
same,response of HEK293 cells (calcium imaging),"FIG. 2, 3 cells, 50 mM L-proline alone",null responses
same,response of HEK293 cell (calcium imaging),"FIG. 3, 50 mM L-proline presented singly",null responses
"O=P([O-])([O-])OP(=O)([O-])O.[Na+].[Na+].[Na+] [sodium pyrophosphate, trisodium pyrophosphate]",response of HEK293 cell (calcium imaging),"FIG. 3, 10 mM sodium pyrophosphate presented singly",null responses
same,response of HEK293 cell (calcium imaging),"FIG. 3, 20 mM sodium pyrophosphate presented singly",null responses
same,response of HEK293 cells (calcium imaging),"FIG. 4, 5 cells, 20 mM sodium pyrophosphate alone",null responses
same,response of HEK293 cell (calcium imaging),"FIG. 6, 20 mM sodium pyrophosphate alone",weak response
